Experimental data: patent US11952365B2, “Anti-viral compounds” (Aligos Therapeutics, Inc., priority 2020, dated 2024)
Like-named read-outs stand apart in the source and are kept apart here.

Legend:
[1] = Cytotoxicity plates without OC43 virus (cell-titer-glo); format: cell-based, human; conditions: human; HeLa cells without OC43 virus, class symbols
Summary of the method: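 Run as a virus-free counterpart of the OC43 cytopathic-effect assay. Attached HeLa cells received compound dilutions in EMEM with 2% FBS and were kept 6 days at 33 °C. Cell viability was then measured by CellTiter-Glo luminescence.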

[2] = tested on: SARS-CoV-2-GHB-03021/2020; test: microbe, parasite or virus in culture; format: cell-based; conditions: Severe acute respiratory syndrome coronavirus 2, Vero C1008, 96 h; read-out: VeroE6 + CP (EC50)
HRV3C = HRV3C (Human rhinovirus 14, UniProt P03303); test: HRV3C protease assay (duplex, SAMDI-MS); format: biochemical, HRV; conditions: HRV3C, 30 mins preincubation, read-out: HRV IC50
Summary of the method: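 Readout is SAMDI mass spectrometry: biotinylated substrates, products and internal standards were immobilized on neutravidin monolayers and product formation taken as the AUC ratio to internal standard. Reactions ran 30 min at ambient temperature after 30 min compound preincubation, in duplex with 3CLpro. IC50 values came from four-parameter curve fitting.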

in vitro [3] = conditions: human
3CLpro = 3CLpro (Severe acute respiratory syndrome coronavirus 2, UniProt P0DTD1); test: SARS-CoV-2 3CLpro protease assay (duplex, SAMDI-MS); format: biochemical; design: For the duplex assay, 3CLpro and HRV3C was added; conditions: 3CLpro, 30 mins preincubation, class symbols; read-out: SARS-Cov-2 IC50
[4] = tested on: human beta-coronavirus OC43; test: microbe, parasite or virus in culture; format: cell-based; conditions: Betacoronavirus 1, OC43, HeLa, 144 h, OC43 in HeLa cells, 6 days at 33° C., read-out: EC50
[5] = tested on: SARS-CoV-2-GHB-03021/2020; test: SARS-CoV-2 Infection Model in Huh7 Cells; format: cell-based; conditions: Severe acute respiratory syndrome coronavirus 2, Huh-7, 96 h, SARS-CoV-2, day 4 p.i., MTS, class symbols
in vitro [6] = conditions: African green monkey, VeroE6 + CP (CC50), Vero E6-eGFP cells with CP-100356, absence of virus, MTS
human cathepsin L = molecular target: T1, human cathepsin L (Homo sapiens, UniProt P07711); test: cathepsin L assay; format: biochemical; conditions: 10 pM human cathepsin L, Z-FR-AMC 2 μM, class symbols
T1 construct: purchased R&D Systems
Summary of the method: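 Reactions began by adding 2 μM (final) Z-FR-AMC substrate to 10 pM human cathepsin L that had been preincubated 30 min with inhibitor. Kinetic AMC fluorescence at 355/460 nm over 30 min at 2-min intervals; four-parameter fitting gave IC50 values.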

Compound | CC50 at 6 days [1] | EC50 [2] | IC50 (HRV3C; class symbols) | CC50 (in vitro [3]) | IC50 (3CLpro) | EC50 ([4]; class symbols) | EC50 [5] | CC50 (in vitro [6]; numeric bounds) | IC50 (human cathepsin L) | EC50 ([4]; bound) | IC50 (HRV3C; bound) | CC50 (in vitro [6]; class symbols)
O=C1NCC[C@H]1C[C@H](NC(=O)[C@@H]1[C@H]2CCC[C@H]2CN1C(=O)c1cc2c(OC3CC3)cc(Cl)cc2[nH]1)C(=O)CO [Compound 138, (1S,3aR,6aS)-2-(6-chloro-4-cyclopropoxy-1H-indole-2-carbonyl)-N-[(2S)-4-hydroxy-3-oxo-1-[(3S)-2-oxopyrrolidin-3-yl]butan-2-yl]-hexahydro-1H-cyclopenta[c]pyrrole-1-carboxamide] | > 10 µM | 1 to 10 µM | 2 to 20 µM | > 50 µM | < 0.02 µM | < 0.1 µM | < 1 µM | > 50 µM | ≥ 10 µM |  |  | 
COc1cccc2[nH]c(C(=O)N3CCc4ccccc4[C@H]3C(=O)N[C@@H](C[C@@H]3CCNC3=O)C(=O)CO)cc12 [Compound 106] | > 10 µM | 10 to 100 µM | 2 to 20 µM | > 10 µM | 0.2 to 2 µM | 1 to 10 µM | 10 to 100 µM | > 50 µM | ≥ 10 µM |  |  | 
Cc1cccc2[nH]c(C(=O)N3CCC4(CC4)C[C@H]3C(=O)N[C@@H](C[C@@H]3CCNC3=O)C(=O)C(=O)NC3CC3)cc12 [Compound 169] | > 10 µM | 1 to 10 µM | 0.2 to 2 µM | > 10 µM | 0.02 to 0.2 µM | 1 to 10 µM | 1 to 10 µM | > 50 µM | 1 to 10 µM |  |  | 
COc1cccc2[nH]c(C(=O)N3CC4(CC4)C[C@H]3C(=O)N[C@@H](C[C@@H]3CCNC3=O)C(=O)CO)cc12 [Compound 31, (6S)—N-[(2S)-4-hydroxy-3-oxo-1-[(3S)-2-oxopyrrolidin-3-yl]butan-2-yl]-5-(4-methoxy-1H-indole-2-carbonyl)-5-azaspiro[2.4]heptane-6-carboxamide] | > 10 µM | 1 to 10 µM | 20 to 100 µM | > 100 µM | < 0.02 µM | 0.1 to 1 µM | 10 to 100 µM | > 100 µM | ≥ 10 µM |  |  | 
COc1cccc2[nH]c(C(=O)N3C[C@@H]4CCC[C@@H]4[C@H]3C(=O)N[C@@H](C[C@@H]3CCNC3=O)C(=O)C(=O)NC3CCOCC3)cc12 [Compound 104] | > 10 µM | 10 to 100 µM | 0.2 to 2 µM | > 100 µM | 0.2 to 2 µM |  | 10 to 100 µM | > 100 µM | ≥ 10 µM | > 10 µM |  | 
O=C1NCC[C@H]1C[C@H](NC(=O)[C@@H]1[C@H]2CCC[C@H]2CN1C(=O)c1cc2c(Cl)cc(F)c(Cl)c2[nH]1)C(=O)CO [Compound 162, (1S,3aR,6aS)-2-(4,7-dichloro-6-fluoro-1H-indole-2-carbonyl)-N-[(2S)-4-hydroxy-3-oxo-1-[(3S)-2-oxopyrrolidin-3-yl]butan-2-yl]-hexahydro-1H-cyclopenta[c]pyrrole-1-carboxamide] | > 10 µM | < 1 µM | 2 to 20 µM | > 50 µM | < 0.02 µM | < 0.1 µM | < 1 µM | > 50 µM | ≥ 10 µM |  |  | 
O=C1NCC[C@H]1C[C@H](NC(=O)[C@@H]1[C@@H]2[C@H](CN1C(=O)c1cc3c(Cl)cc(Cl)cc3[nH]1)[C@@H]1C=C[C@H]2C1)C(=O)CO [Compound 136, (1R,2S,3S,6R,7S)-4-(4,6-dichloro-1H-indole-2-carbonyl)-N-[(2S)-4-hydroxy-3-oxo-1-[(3S)-2-oxopyrrolidin-3-yl]butan-2-yl]-4-azatricyclo[5.2.1.0^{2,6}]dec-8-ene-3-carboxamide] | > 10 µM | < 1 µM | 2 to 20 µM | > 50 µM | < 0.02 µM | < 0.1 µM | < 1 µM | > 50 µM | ≥ 10 µM |  |  | 
COc1cccc2[nH]c(C(=O)N3C[C@@H]4CCC[C@@H]4[C@H]3C(=O)N[C@@H](C[C@@H]3CCNC3=O)C(=O)C(=O)NCCOc3ccccc3)cc12 [Compound 134] | > 10 µM | 1 to 10 µM | 2 to 20 µM | > 50 µM | < 0.02 µM | 0.1 to 1 µM | 1 to 10 µM | > 50 µM | ≥ 10 µM |  |  | 
CC1(C)[C@@H]2[C@@H](C(=O)N[C@@H](C[C@@H]3CCNC3=O)C(=O)CO)N(C(=O)c3cc4c(Cl)cc(Cl)cc4[nH]3)C[C@@H]21 [Compound 127, (1R,2S,5S)-3-(4,6-dichloro-1H-indole-2-carbonyl)-N-[(2S)-4-hydroxy-3-oxo-1-[(3S)-2-oxopyrrolidin-3-yl]butan-2-yl]-6,6-dimethyl-3-azabicyclo[3.1.0]hexane-2-carboxamide] | > 10 µM | < 1 µM | 2 to 20 µM | > 10 µM | 0.02 to 0.2 µM | 0.1 to 1 µM | < 1 µM | > 50 µM | ≥ 10 µM |  |  | 
COc1cccc2[nH]c(C(=O)N3C[C@]4(C[C@H]3C(=O)N[C@@H](C[C@@H]3CCCNC3=O)C(=O)C(=O)NC(C)C)CC4(F)F)cc12 [Compound 34] | > 10 µM | 1 to 10 µM | 0.2 to 2 µM | > 100 µM | 0.02 to 0.2 µM | 0.1 to 1 µM | 10 to 100 µM | > 100 µM | ≥ 10 µM |  |  | 
COc1cccc2[nH]c(C(=O)N3C[C@@H]4CCC[C@@H]4[C@H]3C(=O)NC(CN3CCCC3=O)C(=O)C(=O)NC3CC3)cc12 (single isomer, unassigned) [Compound 113A, (1S,3aR,6aS)—N—((S*)-4-(cyclopropylamino)-3,4-dioxo-1-(2-oxopyrrolidin-1-yl)butan-2-yl)-2-(4-methoxy-1H-indole-2-carbonyl)octahydrocyclopenta[c]pyrrole-1-carboxamide] | > 10 µM | 10 to 100 µM |  | > 50 µM | 0.2 to 2 µM | 1 to 10 µM | 10 to 100 µM | > 50 µM | ≥ 10 µM |  | > 10 µM | 
O=C(NCc1ccccc1)C(=O)[C@H](C[C@@H]1CCNC1=O)NC(=O)[C@@H]1CC2(CCN1C(=O)c1cc3ccccc3[nH]1)CC2 [Compound 24] | > 10 µM | 1 to 10 µM | 20 to 100 µM | > 10 µM | 0.02 to 0.2 µM | 0.1 to 1 µM | 1 to 10 µM | > 100 µM | 0.1 to 1 µM |  |  | 
O=C1NCC[C@H]1C[C@H](NC(=O)[C@@H]1[C@H]2CCC[C@H]2CN1C(=O)c1cc2c(Cl)cc(C(F)(F)F)cc2[nH]1)C(=O)CO [Compound 161, (1S,3aR,6aS)-2-[4-chloro-6-(trifluoromethyl)-1H-indole-2-carbonyl]-N-[(2S)-4-hydroxy-3-oxo-1-[(3S)-2-oxopyrrolidin-3-yl]butan-2-yl]-hexahydro-1H-cyclopenta[c]pyrrole-1-carboxamide] | > 10 µM | 1 to 10 µM |  | > 10 µM | 0.02 to 0.2 µM | < 0.1 µM | < 1 µM | > 50 µM | ≥ 10 µM |  | > 10 µM | 
O=C(NCCOC1CCCC1)C(=O)[C@H](C[C@@H]1CCNC1=O)NC(=O)[C@@H]1[C@H]2CCC[C@H]2CN1C(=O)c1cc2c(Cl)cc(Cl)cc2[nH]1 [Compound 166] | > 10 µM | < 1 µM |  | 1 to 10 µM | < 0.02 µM | 0.1 to 1 µM | < 1 µM |  | 1 to 10 µM |  | > 10 µM | > 10 µM
COc1cccc2[nH]c(C(=O)N3CC4(CC4)C[C@H]3C(=O)N[C@@H](C[C@@H]3CCCNC3=O)C(=O)CO)cc12 [Compound 42, (S)—N—((S)-4-hydroxy-3-oxo-1-((S)-2-oxopiperidin-3-yl)butan-2-yl)-5-(4-methoxy-1H-indole-2-carbonyl)-5-azaspiro[2.4]heptane-6-carboxamide] | > 10 µM | 1 to 10 µM | 2 to 20 µM | > 100 µM | 0.02 to 0.2 µM | 0.1 to 1 µM | 1 to 10 µM | > 100 µM | ≥ 10 µM |  |  | 
